The values below are quoted from earlier work in patent US20110008412A1, “Oral Formulations for 5-HT-Receptor Agonists, Uses and Methods of Treatment Employing The Same” (CIPLA LIMITED, priority 2003, published 2011).

What is called bioavailability is dose-corrected exposure relative to a reference, in per cent.

As to `CNS(=O)(=O)Cc1ccc2[nH]cc(CCN(C)C)c2c1` [sumatriptan, 3-[2-(dimethylamino)ethyl]-N-methyl-1H-indole-5-methanesulfonamide], the half-life result (after subcutaneous and oral application) is “about 2 hours”. For the same compound, where the note is “injected subcutaneously”, the bioavailability was 96%.
